Experimental data taken from paper PMC10463376, “Design, synthesis, in vitro anticancer, molecular docking and SAR studies of new series of pyrrolo[2,3-d]pyrimidine derivatives” (BMC Chemistry, 2023).
Values after ≈ are worked out from the molar mass of the structure shown.

Experiments:
[1] = tested on: HCT116 colorectal cancer cells; experiment: MTT assay, HCT116; settings: Homo sapiens, HCT-116, 72 h, read-out: MTT cell proliferation mortality assay (%) HCT116, at 100 μg/ml, 72 h
Description: (§1) All of the following steps were done in a sterile Laminar flow class II biosafety cabinet (Baker, SG406INT, Sanford, ME, USA). DMEM was used as a suspension medium for breast cancer (MCF7), colorectal cancer (HCT116), prostate cancer (PC3), liver cancer (HePG2), pancreatic cancer (PACA2) and lung cancer (A549), while normal cell line (BJ1) was suspended in DMEM-F12 medium. The selected cell lines were purchased from American Type Culture Collection (ATCC). The media were supplemented with a 1% antimycotic-antibiotic mixture (10,000 µg/ml streptomycin sulfate, 25 µg/ml Amphotericin B, and 10,000 U/ml Potassium Penicillin) and 1% L-glutamine. 10 × 10^4cells/well were seeded in 96 well microtiter plates and incubated for 24 h at 37 ℃ under 5% carbon dioxide using a water-jacketed Carbon dioxide incubator (Sheldon, SCO5A, OR, USA). […] After the incubation time of 72 h, the medium was removed. Afterward, 40 µl MTT salt ([…]) was added to each well and kept for 4 h under the same conditions of 37 °C and 5% carbon dioxide. Finally, 200 μl of 10% Sodium dodecyl sulfate (SDS) in deionized water was added to each well and incubated overnight at 37 °C. The step of SDS addition was done to stop the reaction and dissolve the formed formazan crystals. The absorbance was then measured at a wavelength of 595 nm and the reference wavelength was set at 620 nm using a microplate multi-well reader (Bio-Rad Laboratories Inc., model 3356, California, USA). […] A statistical significance analysis was determined between the samples and the negative control using an independent t-test by SPSS 11 program. Dimethyl sulfoxide (DMSO) was the vehicle that dissolved our synthesized compounds and its concentration in the cells was less than 0.2%. IC50 values were calculated using the GraphPad Prism 6 program. The degree of selectivity of the synthetic compounds was expressed as SI = IC50 of a pure compound in a normal cell line/IC50 of the same pure compound in the cancer cell line, where IC50 is the concentration of the compound required to kill 50% of the cells.

HePG2 liver cancer cells = experiment: MTT assay, HePG2; settings: Homo sapiens, HepG2, 72 h; for IC50: read-out: IC50 HePG2; for cytotoxicity at 100 µg/mL: read-out: MTT cell proliferation mortality assay (%) HePG2
Description: as §1

[2] = tested on: PACA2 pancreatic cancer cells; experiment: MTT assay, PACA2; settings: Homo sapiens, PaCa-2, 72 h, read-out: MTT cell proliferation mortality assay (%) PACA2
Description: as §1

[3] = MTT assay, normal cell line BJ1; assay type: cell-based; settings: human, at 100 μg/ml, read-out: MTT cell proliferation mortality assay (%) BJ1
Description: as §1

[4] = tested on: PC3 prostate cancer cells; experiment: MTT assay, PC3; settings: Homo sapiens, 72 h, read-out: MTT cell proliferation mortality assay (%) PC3, at 100 μg/ml, 72 h
Description: as §1

A549 lung cancer cells = experiment: MTT assay, A549; settings: for cytotoxicity at 100 µg/mL: read-out: MTT cell proliferation mortality assay (%) A549, at 100 μg/ml, 72 h
Description: as §1

MCF7 breast cancer cells = experiment: MTT assay, MCF7
Description: as §1

[5] = Homo sapiens, MCF7, 72 h, read-out: MTT cell proliferation mortality assay (%) MCF7

SMILES	cytotoxicity at 100 µg/mL [1] [%]	IC50 (HePG2 liver cancer cells) [µg/mL]	cytotoxicity at 100 µg/mL (HePG2 liver cancer cells) [%]	cytotoxicity at 100 µg/mL [2] [%]	cytotoxicity at 72 h, 100 μg/ml [3] [%]	cytotoxicity at 100 µg/mL [4] [%]	IC50 (A549 lung cancer cells; Homo sapiens, A549, 72 h, read-out: IC50 A549) [µg/mL]	cytotoxicity at 100 µg/mL (A549 lung cancer cells; Homo sapiens, A549, 72 h) [%]	cytotoxicity (A549 lung cancer cells; read-out: MTT cell proliferation mortality assay (%) A549, at 100 μg/ml, 72 h) [%]	IC50 (MCF7 breast cancer cells; Homo sapiens, MCF7, 72 h, read-out: IC50 MCF7) [µg/mL]	cytotoxicity at 100 µg/mL (MCF7 breast cancer cells; [5]) [%]	cytotoxicity (MCF7 breast cancer cells; read-out: MTT cell proliferation mortality assay (%) MCF7, at 100 μg/ml, 72 h) [%]
NNc1nc(C(Cl)(Cl)Cl)nc2c1c(-c1ccc(Br)cc1)c(Cl)n2-c1ccc(Cl)cc1Cl [Compound 15, 5-(4-bromophenyl)-6-chloro-7-(2,4-dichlorophenyl)-4-hydrazineyl-2-(trichloromethyl)-7H-pyrrolo[2,3-d]pyrimidine]	100	29.1 ± 0.5 (≈ 48.4 µM)	100	100	4.5 ± 0.3	65.9 ± 2.4	54 ± 1.7 (≈ 89.9 µM)	80 to 90	84.6 ± 0.4	42.8 ± 0.6 (≈ 71.2 µM)	81.2 ± 0.8	80 to 95
CN1CCN(c2ncnc3c2c(-c2ccc(Br)cc2)c(Cl)n3-c2ccc(Cl)cc2Cl)CC1 [Compound 16a, 5-(4-bromophenyl)-6-chloro-7-(2,4-dichlorophenyl)-4-(4-methylpiperazin-1-yl)-7H-pyrrolo[2,3-d]pyrimidine]	73.2 ± 0.8	–	100	7.5 ± 1.1	70.5 ± 0.4	3.8 ± 0.3	–	3.2 ± 0.5	–	–	73.6 ± 2.2	–
Clc1ccc(-n2c(Cl)c(-c3ccc(Br)cc3)c3c(N4CCOCC4)ncnc32)c(Cl)c1 [Compound 18a, 4-(5-(4-bromophenyl)-6-chloro-7-(2,4-dichlorophenyl)-7H-pyrrolo[2,3-d]pyrimidin-4-yl)morpholine]	54.2 ± 1.2	–	16.4 ± 1.6	31 ± 1.3	3.2 ± 1.5	2.1 ± 0.6	–	22.7 ± 0.9	–	–	41.2 ± 1.5	–
Clc1ccc(-n2c(Cl)c(-c3ccc(Br)cc3)c3c(N4CCOCC4)nc(C(Cl)(Cl)Cl)nc32)c(Cl)c1 [Compound 19, 4-(5-(4-bromophenyl)-6-chloro-7-(2,4-dichlorophenyl)-2-(trichloromethyl)-7H-pyrrolo[2,3-d]pyrimidin-4-yl)morpholine]	35.9 ± 1.5	19.4 ± 0.8 (≈ 29.6 µM)	100	31.2 ± 5.1	52.7 ± 1.4	3.7 ± 1.1	–	5.6 ± 0.7	–	–	62.3 ± 3.4	–
